US20130189773A1, “PRODUCTION OF HYPOTHIOCYANITE FROM HALOGENATED CELLS” (priority 2012, published 2013)

Key:
[1] = biological target: T1, GSH reductase (GOR) (Homo sapiens, UniProt P00390); experiment: inhibition of GSH reductase (GOR) by HOCl and repair by SCN^− (GOR-catalyzed reduction of GSSG by NADPH, kinetic traces at 340 nm); assay type: biochemical
T1 sequence (P00390 45-522 limits assumed): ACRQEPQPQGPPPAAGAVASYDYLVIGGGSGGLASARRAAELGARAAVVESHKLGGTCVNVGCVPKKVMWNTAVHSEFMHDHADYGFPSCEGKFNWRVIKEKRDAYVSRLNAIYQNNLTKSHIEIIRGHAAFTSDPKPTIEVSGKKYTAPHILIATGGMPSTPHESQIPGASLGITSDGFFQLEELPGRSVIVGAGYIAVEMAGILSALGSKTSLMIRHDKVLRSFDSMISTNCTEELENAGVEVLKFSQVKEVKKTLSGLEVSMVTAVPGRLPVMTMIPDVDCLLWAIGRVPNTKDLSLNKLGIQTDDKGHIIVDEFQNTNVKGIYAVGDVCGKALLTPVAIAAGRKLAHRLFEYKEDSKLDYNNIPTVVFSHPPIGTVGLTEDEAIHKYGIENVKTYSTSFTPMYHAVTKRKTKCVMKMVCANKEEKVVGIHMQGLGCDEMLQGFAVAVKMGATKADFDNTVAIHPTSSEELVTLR
Method: FIG. 2 contains kinetic traces at 340 nm depicting the GOR-catalyzed reduction of GSSG by NADPH. Conditions: (Control) [GSSG]o=1 mM, [NADPH]o=0.1 mM, [GOR]=0.025 U/mL, [iP]=0.1 M, pH 7.4 and T=25° C.; (SCN^- treated) GOR incubated with 40 μM HOCl for 20 minutes and then treated with 160 μM SCN^- for another 20 minutes. (HOCl modified) GOR incubated with 40 μM HOCl for 20 minutes and then treated with iP for an additional 20 minutes. […] Glutathione (GSH) is a major non-protein thiol in cells (up to mM concentrations have been reported in some cells). One of the cellular functions of GSH is to serve as an antioxidant, and thus GSH is essential for cell survival, especially during conditions of oxidative stress. Many of the important residues in the active site of GOR, including two cysteines ([…]) and tyrosine ([…]), are susceptible to HOCl attack. Oxidation of these residues results in the inhibition of enzyme activity.

[2] = tested on: A549 cells; experiment: flow cytometry of percent live, necrotic and apoptotic A549 cells; assay type: cell-based, human
Method: A549 cells were untreated (A), treated with 50 μM HOCl (B), treated with 50 μM SCN^− followed by treatment with 50 μM HOCl, (C), or treated with 50 μM HOCl followed by treatment 30 minutes later with 50 μM SCN^− (D).
Using the same protocol that was used to investigate the reaction of intracellular chloramines with SCN^− (FIG. 3), flow cytometry was employed to investigate the percent of live, necrotic, and apoptotic cells (FIG. 4).

[3] = tested on: A549 cells; experiment: fluorescent probe detection of HOCl-produced intracellular chloramines in A549 cells; assay type: cell-based, human
Method: In each experiment, A549 cells were incubated with 50 μM HOCl in RPMI culture medium for 20 min at 37° C. and washed with the medium to remove residual HOCl; the cells were then incubated for an additional 20 minutes at 37° C. with 50 μM SCN^− and washed again with the medium. FIG. 3D illustrates the structure of the rhodamine-hydroxymic acid-based probe utilized in FIGS. 3A-C.

Row | loss of enzyme activity ([1]; GOR ~1.3 nM treated with 40 μM HOCl for 20 minutes, loss within 13 minutes, pH 7.4, 25° C.) | Structure (SMILES) | enzyme activity recovered ([1]; HOCl-modified GOR (40 μM HOCl, 20 minutes) subsequently treated with 160 μM SCN^− for 20 minutes) | recovery of HOCl-damaged cells ([2]; 50 μM SCN^− added within 30 minutes after 50 μM HOCl (FIG. 4D)) | protection of cells from HOCl ([2]; 50 μM SCN^− present before 50 μM HOCl was added (FIG. 4C)) | recovery of HOCl-damaged cells ([2]; interval for addition of SCN^− after HOCl 1 hour or more (data not shown)) | fluorescence with probe compound (1) (intracellular chloramines) ([3]; A549 cells treated with 50 μM HOCl and subsequently with 50 μM SCN^− 20 minutes (FIG. 3C)) | fluorescence with probe compound (1) (intracellular chloramines) ([3]; A549 cells treated with HOCl in the presence of SCN^− (data not shown)) | cell killing ([2]; 50 μM HOCl (FIG. 4B)) | apoptotic cells ([2]; under the conditions of these experiments (50 μM HOCl with or without 50 μM SCN^−)) | fluorescence with probe compound (1) (intracellular chloramines) ([3]; A549 cells treated with 50 μM HOCl 20 min 37° C., then probe (FIG. 3B))
1 |  | N#CS [SCN^−, thiocyanate] | ~89% | the cells were resuscitated | efficient scavenger of HOCl | recovery was not observed | do not fluoresce | did not fluoresce |  |  | 
2 | ~82% | OCl [HOCl, hypochlorous acid, reference compound] |  |  |  |  |  |  | kill roughly half of the cells | essentially no apoptotic cells were observed | fluoresced
